The values below come from patent US9340590B2 (priority 2011, dated 2016).

SMILES strings stand for the structures. Positions of bridges follow the written chain, without caps; N, C: chain ends. Residues, ends and D or L forms follow the SMILES beside them.

What all share (experiment): cell-based
For experiment [1], the target named is hNav1.7 (Homo sapiens, UniProt Q15858). It is filed as cell-based. As to conditions: IonWorks Quattro, use-dependent block, hNav1.7; read-out: IWQ Use Nav1.7. (In general: In patch-clamp work, channel activity is measured electrically.)
The target of experiment [2] is hNav1.5 (Homo sapiens, UniProt Q14524). As to conditions: IonWorks Quattro, use-dependent block, hNav1.5; read-out: IWQ Use Nav1.5.
Experiment [3] concerns the target hNav1.3 (Homo sapiens, UniProt Q9NY46). As to conditions: IonWorks Quattro, use-dependent block, hNav1.3; read-out: IWQ Use Nav1.3.

hNav1.5, sequence (Q14524 whole entry, looked up): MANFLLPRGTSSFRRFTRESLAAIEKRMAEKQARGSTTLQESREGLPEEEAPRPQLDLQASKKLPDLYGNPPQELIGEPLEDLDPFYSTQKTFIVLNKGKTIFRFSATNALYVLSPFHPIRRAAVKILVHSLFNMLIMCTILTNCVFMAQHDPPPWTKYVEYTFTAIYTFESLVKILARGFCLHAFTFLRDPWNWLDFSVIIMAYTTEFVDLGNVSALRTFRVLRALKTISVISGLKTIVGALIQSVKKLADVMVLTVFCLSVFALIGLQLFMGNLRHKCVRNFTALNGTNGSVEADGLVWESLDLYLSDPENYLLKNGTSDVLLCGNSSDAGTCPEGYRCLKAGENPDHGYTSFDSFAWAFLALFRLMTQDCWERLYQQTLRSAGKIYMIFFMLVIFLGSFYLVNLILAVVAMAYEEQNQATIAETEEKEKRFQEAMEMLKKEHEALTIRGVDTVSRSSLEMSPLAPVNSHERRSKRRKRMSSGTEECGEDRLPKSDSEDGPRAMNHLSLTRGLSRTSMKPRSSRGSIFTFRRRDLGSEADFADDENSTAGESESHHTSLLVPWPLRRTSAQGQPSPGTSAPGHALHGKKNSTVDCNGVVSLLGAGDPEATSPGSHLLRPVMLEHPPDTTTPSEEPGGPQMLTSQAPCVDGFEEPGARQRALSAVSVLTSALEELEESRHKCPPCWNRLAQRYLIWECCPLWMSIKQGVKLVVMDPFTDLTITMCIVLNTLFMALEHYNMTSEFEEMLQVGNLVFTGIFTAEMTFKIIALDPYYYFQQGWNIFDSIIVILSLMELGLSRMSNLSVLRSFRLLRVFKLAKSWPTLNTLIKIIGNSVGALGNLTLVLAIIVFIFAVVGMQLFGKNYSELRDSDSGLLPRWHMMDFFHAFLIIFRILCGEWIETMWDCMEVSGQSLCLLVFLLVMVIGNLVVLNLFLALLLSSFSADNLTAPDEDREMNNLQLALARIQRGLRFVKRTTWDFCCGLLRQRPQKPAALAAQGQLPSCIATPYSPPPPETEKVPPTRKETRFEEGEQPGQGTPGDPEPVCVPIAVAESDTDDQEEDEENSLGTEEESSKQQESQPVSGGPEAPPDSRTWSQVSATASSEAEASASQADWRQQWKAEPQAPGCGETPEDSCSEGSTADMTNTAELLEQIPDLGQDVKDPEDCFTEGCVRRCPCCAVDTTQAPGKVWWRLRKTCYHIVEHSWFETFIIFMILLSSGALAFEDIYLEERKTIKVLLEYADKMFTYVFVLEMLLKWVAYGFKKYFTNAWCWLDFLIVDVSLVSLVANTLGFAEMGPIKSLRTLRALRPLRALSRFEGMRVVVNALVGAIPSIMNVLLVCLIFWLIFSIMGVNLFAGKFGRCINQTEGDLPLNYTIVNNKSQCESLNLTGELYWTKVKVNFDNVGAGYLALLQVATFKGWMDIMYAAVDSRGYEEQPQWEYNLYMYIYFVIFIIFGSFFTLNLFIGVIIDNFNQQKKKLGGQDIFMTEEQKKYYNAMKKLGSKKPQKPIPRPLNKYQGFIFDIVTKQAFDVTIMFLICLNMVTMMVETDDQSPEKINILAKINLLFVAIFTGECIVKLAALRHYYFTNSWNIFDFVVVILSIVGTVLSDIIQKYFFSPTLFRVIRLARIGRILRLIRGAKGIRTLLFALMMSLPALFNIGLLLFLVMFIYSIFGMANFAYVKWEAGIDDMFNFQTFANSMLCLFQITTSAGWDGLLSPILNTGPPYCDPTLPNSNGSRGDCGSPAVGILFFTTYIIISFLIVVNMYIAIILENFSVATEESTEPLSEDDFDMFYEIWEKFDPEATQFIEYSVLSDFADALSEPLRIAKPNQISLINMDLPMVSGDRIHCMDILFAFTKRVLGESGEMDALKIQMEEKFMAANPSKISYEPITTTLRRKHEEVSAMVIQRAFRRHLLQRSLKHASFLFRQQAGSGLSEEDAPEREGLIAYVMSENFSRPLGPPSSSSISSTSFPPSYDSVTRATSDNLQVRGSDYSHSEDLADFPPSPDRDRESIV
hNav1.3, sequence (Q9NY46 whole entry, looked up): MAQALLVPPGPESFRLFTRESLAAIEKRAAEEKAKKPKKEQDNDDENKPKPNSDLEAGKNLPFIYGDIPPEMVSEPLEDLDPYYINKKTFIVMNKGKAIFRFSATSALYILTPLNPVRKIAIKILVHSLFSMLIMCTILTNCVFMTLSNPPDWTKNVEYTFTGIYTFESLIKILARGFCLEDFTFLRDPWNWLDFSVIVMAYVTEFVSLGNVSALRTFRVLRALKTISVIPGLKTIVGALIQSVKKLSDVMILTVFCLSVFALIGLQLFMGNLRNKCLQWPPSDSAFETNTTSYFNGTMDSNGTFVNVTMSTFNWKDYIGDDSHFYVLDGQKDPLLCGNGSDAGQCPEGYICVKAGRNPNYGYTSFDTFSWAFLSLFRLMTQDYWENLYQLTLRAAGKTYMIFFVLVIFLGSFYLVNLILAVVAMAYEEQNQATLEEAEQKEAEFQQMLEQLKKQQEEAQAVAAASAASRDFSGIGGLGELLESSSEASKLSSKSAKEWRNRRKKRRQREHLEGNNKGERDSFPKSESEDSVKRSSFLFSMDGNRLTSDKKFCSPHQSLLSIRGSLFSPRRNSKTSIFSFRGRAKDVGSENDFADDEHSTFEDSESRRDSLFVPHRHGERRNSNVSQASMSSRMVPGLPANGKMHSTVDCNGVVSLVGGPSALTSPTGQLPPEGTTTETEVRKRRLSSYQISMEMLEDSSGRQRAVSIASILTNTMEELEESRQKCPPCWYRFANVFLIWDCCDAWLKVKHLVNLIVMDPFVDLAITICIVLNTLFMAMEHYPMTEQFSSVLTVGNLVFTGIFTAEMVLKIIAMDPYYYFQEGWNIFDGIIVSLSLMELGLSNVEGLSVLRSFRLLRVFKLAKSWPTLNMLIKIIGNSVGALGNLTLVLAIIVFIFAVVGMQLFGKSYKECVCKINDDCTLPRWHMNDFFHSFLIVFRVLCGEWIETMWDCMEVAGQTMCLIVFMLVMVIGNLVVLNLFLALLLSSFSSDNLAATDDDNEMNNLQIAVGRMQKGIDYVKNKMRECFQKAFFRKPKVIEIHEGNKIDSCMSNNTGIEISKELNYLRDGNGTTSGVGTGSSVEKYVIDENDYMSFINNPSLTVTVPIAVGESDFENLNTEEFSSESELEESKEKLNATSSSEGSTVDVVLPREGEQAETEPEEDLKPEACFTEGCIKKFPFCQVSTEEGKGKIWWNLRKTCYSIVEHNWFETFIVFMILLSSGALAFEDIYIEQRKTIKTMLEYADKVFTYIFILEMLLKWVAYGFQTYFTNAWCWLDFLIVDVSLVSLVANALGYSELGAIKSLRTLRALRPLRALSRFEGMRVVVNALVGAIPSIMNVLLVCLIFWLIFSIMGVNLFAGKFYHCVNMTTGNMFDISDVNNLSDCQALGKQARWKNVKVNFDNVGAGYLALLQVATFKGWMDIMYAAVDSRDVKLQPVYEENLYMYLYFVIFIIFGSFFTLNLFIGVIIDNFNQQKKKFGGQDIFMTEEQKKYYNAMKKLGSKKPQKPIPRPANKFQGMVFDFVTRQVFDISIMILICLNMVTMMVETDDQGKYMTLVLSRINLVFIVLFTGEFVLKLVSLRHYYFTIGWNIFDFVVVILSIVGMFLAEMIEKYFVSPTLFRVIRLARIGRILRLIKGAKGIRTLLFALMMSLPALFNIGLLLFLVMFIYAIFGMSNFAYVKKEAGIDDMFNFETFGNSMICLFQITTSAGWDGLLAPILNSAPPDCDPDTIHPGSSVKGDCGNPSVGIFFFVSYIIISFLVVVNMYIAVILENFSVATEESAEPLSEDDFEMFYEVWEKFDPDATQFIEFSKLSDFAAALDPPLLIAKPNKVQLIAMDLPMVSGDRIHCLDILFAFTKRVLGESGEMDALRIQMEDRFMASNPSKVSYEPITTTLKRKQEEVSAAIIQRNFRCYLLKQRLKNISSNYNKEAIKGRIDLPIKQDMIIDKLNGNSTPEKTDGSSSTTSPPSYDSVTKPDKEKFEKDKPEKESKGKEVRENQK

Consider `CC[C@H](C)[C@@H]1NC(=O)[C@@H]2CSSC[C@@H]3NC(=O)[C@H](C(C)C)NC(=O)[C@H](CC(C)C)NC(=O)[C@H](CC(N)=O)NC(=O)[C@@H]4CCCN4C(=O)[C@H](CCCNC(=N)N)NC(=O)[C@H](CSSC[C@H](NC(=O)[C@@H](N)CC(=O)O)C(=O)N[C@@H](CC(C)C)C(=O)NCC(=O)N[C@@H](C)C(=O)N[C@@H](Cc4ccccc4)C(=O)N[C@@H](CCCNC(=N)N)C(=O)N[C@@H](CCCCN)C(=O)N2)NC(=O)[C@H](CSSC[C@@H](C(=O)N[C@@H](CCCCN)C(=O)N[C@@H](Cc2ccc(O)cc2)C(=O)N[C@H](C(=O)N[C@@H](Cc2ccccc2)C(=O)O)C(C)C)NC(=O)[C@H](Cc2c[nH]c4ccccc24)NC(=O)[C@H](CC(N)=O)NC(=O)[C@H](Cc2c[nH]cn2)NC(=O)[C@H]([C@@H](C)O)NC(=O)[C@H](CCCNC(=N)N)NC(=O)[C@H](CO)NC3=O)NC(=O)[C@H](CCCCN)NC(=O)[C@H](CC(=O)O)NC(=O)[C@H](CC(N)=O)NC(=O)[C@H](CC(=O)O)NC(=O)[C@@H]2CCCN2C1=O` [compound 832] (H-DCLGAFRKCIPDNDKCCRPNLVCSRTHNWCKYVF-OH; disulfide 2-17, 9-23, 16-30), for which the IC50 is more than 5 µM in experiment [1], more than 5 µM in experiment [2] and 4.6 µM in experiment [3].

For the compound `CC[C@H](C)[C@@H]1NC(=O)[C@@H]2CSSC[C@@H]3NC(=O)[C@H](C(C)C)NC(=O)[C@H](CC(C)C)NC(=O)[C@H](CC(N)=O)NC(=O)[C@@H]4CCCN4C(=O)[C@H](CCCNC(=N)N)NC(=O)[C@H](CSSC[C@H](NC(=O)[C@@H](N)CC(=O)O)C(=O)N[C@@H](CC(C)C)C(=O)NCC(=O)N[C@@H](C)C(=O)N[C@@H](Cc4ccccc4)C(=O)N[C@@H](CCCNC(=N)N)C(=O)N[C@@H](CCCCN)C(=O)N2)NC(=O)[C@H](CSSC[C@@H](C(=O)N[C@@H](CCCCN)C(=O)N[C@@H](Cc2ccc(O)cc2)C(=O)N[C@H](C(=O)N[C@@H](Cc2ccccc2)C(=O)O)C(C)C)NC(=O)[C@H](Cc2c[nH]c4ccccc24)NC(=O)[C@@H]2CCCN2C(=O)[C@H](Cc2c[nH]cn2)NC(=O)[C@H]([C@@H](C)O)NC(=O)[C@H](CCCNC(=N)N)NC(=O)[C@H](CO)NC3=O)NC(=O)[C@H](CCCCN)NC(=O)[C@H](CC(=O)O)NC(=O)[C@H](CC(N)=O)NC(=O)[C@H](CC(=O)O)NC(=O)[C@@H]2CCCN2C1=O` [compound 833] (H-DCLGAFRKCIPDNDKCCRPNLVCSRTHPWCKYVF-OH; disulfide 2-17, 9-23, 16-30), the IC50 in experiment [1], in experiment [2] and in experiment [3] was more than 5 µM in each case.

In the case of `CC[C@H](C)[C@@H]1NC(=O)[C@@H]2CSSC[C@@H]3NC(=O)[C@H](C(C)C)NC(=O)[C@H](CC(C)C)NC(=O)[C@H](CC(N)=O)NC(=O)[C@@H]4CCCN4C(=O)[C@H](CCCNC(=N)N)NC(=O)[C@H](CSSC[C@H](NC(=O)[C@@H](N)CC(=O)O)C(=O)N[C@@H](CC(C)C)C(=O)NCC(=O)N[C@@H](C)C(=O)N[C@@H](Cc4ccccc4)C(=O)N[C@@H](CCCNC(=N)N)C(=O)N[C@@H](CCCCN)C(=O)N2)NC(=O)[C@H](CSSC[C@@H](C(=O)N[C@@H](CCCCN)C(=O)N[C@@H](Cc2ccc(O)cc2)C(=O)N[C@H](C(=O)N[C@@H](Cc2ccccc2)C(=O)O)C(C)C)NC(=O)[C@H](Cc2c[nH]c4ccccc24)NC(=O)[C@H](CCC(N)=O)NC(=O)[C@H](Cc2c[nH]cn2)NC(=O)[C@H]([C@@H](C)O)NC(=O)[C@H](CCCNC(=N)N)NC(=O)[C@H](CO)NC3=O)NC(=O)[C@H](CCCCN)NC(=O)[C@H](CC(=O)O)NC(=O)[C@H](CC(N)=O)NC(=O)[C@H](CC(=O)O)NC(=O)[C@@H]2CCCN2C1=O` [compound 834] (H-DCLGAFRKCIPDNDKCCRPNLVCSRTHQWCKYVF-OH; disulfide 2-17, 9-23, 16-30), the IC50 is more than 5 µM in experiment [1], more than 5 µM in experiment [2] and 3.9 µM in experiment [3].

`CC[C@H](C)[C@@H]1NC(=O)[C@@H]2CSSC[C@@H]3NC(=O)[C@H](C(C)C)NC(=O)[C@H](CC(C)C)NC(=O)[C@H](CC(N)=O)NC(=O)[C@@H]4CCCN4C(=O)[C@H](CCCNC(=N)N)NC(=O)[C@H](CSSC[C@H](NC(=O)[C@@H](N)CC(=O)O)C(=O)N[C@@H](CC(C)C)C(=O)NCC(=O)N[C@@H](C)C(=O)N[C@@H](Cc4ccccc4)C(=O)N[C@@H](CCCNC(=N)N)C(=O)N[C@@H](CCCCN)C(=O)N2)NC(=O)[C@H](CSSC[C@@H](C(=O)N[C@@H](CCCCN)C(=O)N[C@@H](Cc2ccc(O)cc2)C(=O)N[C@H](C(=O)N[C@@H](Cc2ccccc2)C(=O)O)C(C)C)NC(=O)[C@H](Cc2c[nH]c4ccccc24)NC(=O)[C@H](CO)NC(=O)[C@H](Cc2c[nH]cn2)NC(=O)[C@H]([C@@H](C)O)NC(=O)[C@H](CCCNC(=N)N)NC(=O)[C@H](CO)NC3=O)NC(=O)[C@H](CCCCN)NC(=O)[C@H](CC(=O)O)NC(=O)[C@H](CC(N)=O)NC(=O)[C@H](CC(=O)O)NC(=O)[C@@H]2CCCN2C1=O` [compound 835] (H-DCLGAFRKCIPDNDKCCRPNLVCSRTHSWCKYVF-OH; disulfide 2-17, 9-23, 16-30): the IC50 in experiment [1], in experiment [2] and in experiment [3] was more than 5 µM in each case.

For `CC[C@H](C)[C@@H]1NC(=O)[C@@H]2CSSC[C@@H]3NC(=O)[C@H](C(C)C)NC(=O)[C@H](CC(C)C)NC(=O)[C@H](CC(N)=O)NC(=O)[C@@H]4CCCN4C(=O)[C@H](CCCNC(=N)N)NC(=O)[C@H](CSSC[C@H](NC(=O)[C@@H](N)CC(=O)O)C(=O)N[C@@H](CC(C)C)C(=O)NCC(=O)N[C@@H](C)C(=O)N[C@@H](Cc4ccccc4)C(=O)N[C@@H](CCCNC(=N)N)C(=O)N[C@@H](CCCCN)C(=O)N2)NC(=O)[C@H](CSSC[C@@H](C(=O)N[C@@H](CCCCN)C(=O)N[C@@H](Cc2ccc(O)cc2)C(=O)N[C@H](C(=O)N[C@@H](Cc2ccccc2)C(=O)O)C(C)C)NC(=O)[C@H](Cc2c[nH]c4ccccc24)NC(=O)[C@H](CCCNC(=N)N)NC(=O)[C@H](Cc2c[nH]cn2)NC(=O)[C@H]([C@@H](C)O)NC(=O)[C@H](CCCNC(=N)N)NC(=O)[C@H](CO)NC3=O)NC(=O)[C@H](CCCCN)NC(=O)[C@H](CC(=O)O)NC(=O)[C@H](C)NC(=O)[C@H](CC(=O)O)NC(=O)[C@@H]2CCCN2C1=O` [compound 836] (H-DCLGAFRKCIPDADKCCRPNLVCSRTHRWCKYVF-OH; disulfide 2-17, 9-23, 16-30), the IC50 in experiment [1] was 4.1 µM; in experiment [2], more than 5 µM; in experiment [3], 1.3 µM.

With `CC[C@H](C)[C@@H]1NC(=O)[C@@H]2CSSC[C@@H]3NC(=O)[C@H](C(C)C)NC(=O)[C@H](CC(C)C)NC(=O)[C@H](CC(N)=O)NC(=O)[C@@H]4CCCN4C(=O)[C@H](CCCNC(=N)N)NC(=O)[C@H](CSSC[C@H](NC(=O)[C@@H](N)CC(=O)O)C(=O)N[C@@H](CC(C)C)C(=O)NCC(=O)N[C@@H](C)C(=O)N[C@@H](Cc4ccccc4)C(=O)N[C@@H](CCCNC(=N)N)C(=O)N[C@@H](CCCCN)C(=O)N2)NC(=O)[C@H](CSSC[C@@H](C(=O)N[C@@H](CCCCN)C(=O)N[C@@H](Cc2ccc(O)cc2)C(=O)N[C@H](C(=O)N[C@@H](Cc2ccccc2)C(=O)O)C(C)C)NC(=O)[C@H](Cc2c[nH]c4ccccc24)NC(=O)[C@H](CCCNC(=N)N)NC(=O)[C@H](Cc2c[nH]cn2)NC(=O)[C@H]([C@@H](C)O)NC(=O)[C@H](CCCNC(=N)N)NC(=O)[C@H](CO)NC3=O)NC(=O)[C@H](CCCCN)NC(=O)[C@H](CC(=O)O)NC(=O)[C@H](CC(=O)O)NC(=O)[C@H](CC(=O)O)NC(=O)[C@@H]2CCCN2C1=O` [compound 837], the IC50 in experiment [1] is more than 5 µM; in experiment [2], more than 5 µM; in experiment [3], 2.3 µM.

Turning to `CC[C@H](C)[C@@H]1NC(=O)[C@@H]2CSSC[C@@H]3NC(=O)[C@H](C(C)C)NC(=O)[C@H](CC(C)C)NC(=O)[C@H](CC(N)=O)NC(=O)[C@@H]4CCCN4C(=O)[C@H](CCCNC(=N)N)NC(=O)[C@H](CSSC[C@H](NC(=O)[C@@H](N)CC(=O)O)C(=O)N[C@@H](CC(C)C)C(=O)NCC(=O)N[C@@H](C)C(=O)N[C@@H](Cc4ccccc4)C(=O)N[C@@H](CCCNC(=N)N)C(=O)N[C@@H](CCCCN)C(=O)N2)NC(=O)[C@H](CSSC[C@@H](C(=O)N[C@@H](CCCCN)C(=O)N[C@@H](Cc2ccc(O)cc2)C(=O)N[C@H](C(=O)N[C@@H](Cc2ccccc2)C(=O)O)C(C)C)NC(=O)[C@H](Cc2c[nH]c4ccccc24)NC(=O)[C@H](CCCNC(=N)N)NC(=O)[C@H](Cc2c[nH]cn2)NC(=O)[C@H]([C@@H](C)O)NC(=O)[C@H](CCCNC(=N)N)NC(=O)[C@H](CO)NC3=O)NC(=O)[C@H](CCCCN)NC(=O)[C@H](CC(=O)O)NC(=O)[C@H](CCC(=O)O)NC(=O)[C@H](CC(=O)O)NC(=O)[C@@H]2CCCN2C1=O` [compound 838], the figures for the IC50 in experiment [1], in experiment [2] and in experiment [3] were more than 5 µM, more than 5 µM and 1.9 µM, respectively.

For `CC[C@H](C)[C@@H]1NC(=O)[C@@H]2CSSC[C@@H]3NC(=O)[C@H](C(C)C)NC(=O)[C@H](CC(C)C)NC(=O)[C@H](CC(N)=O)NC(=O)[C@@H]4CCCN4C(=O)[C@H](CCCNC(=N)N)NC(=O)[C@H](CSSC[C@H](NC(=O)[C@@H](N)CC(=O)O)C(=O)N[C@@H](CC(C)C)C(=O)NCC(=O)N[C@@H](C)C(=O)N[C@@H](Cc4ccccc4)C(=O)N[C@@H](CCCNC(=N)N)C(=O)N[C@@H](CCCCN)C(=O)N2)NC(=O)[C@H](CSSC[C@@H](C(=O)N[C@@H](CCCCN)C(=O)N[C@@H](Cc2ccc(O)cc2)C(=O)N[C@H](C(=O)N[C@@H](Cc2ccccc2)C(=O)O)C(C)C)NC(=O)[C@H](Cc2c[nH]c4ccccc24)NC(=O)[C@H](CCCNC(=N)N)NC(=O)[C@H](Cc2c[nH]cn2)NC(=O)[C@H]([C@@H](C)O)NC(=O)[C@H](CCCNC(=N)N)NC(=O)[C@H](CO)NC3=O)NC(=O)[C@H](CCCCN)NC(=O)[C@H](CC(=O)O)NC(=O)[C@H](Cc2ccccc2)NC(=O)[C@H](CC(=O)O)NC(=O)[C@@H]2CCCN2C1=O` [compound 839], the IC50 in experiment [1] is more than 5 µM; in experiment [2] it was more than 5 µM; in experiment [3], 1.2 µM.
